Laboratory results reported in patent US11661437B2, “Steroid derivative regulators, method for preparing the same, and uses thereof” (priority 2018, dated 2023).
Where two headings read alike, the source gives them in different places.

How the values were obtained:
GABA-A receptor = assay: 35S-TBPS binding assay on rat cerebral cortex cell membrane; set-up: species or system Sprague-Dawley rat; details: 2 nM 35S-TBPS, GABA added, read-out: 35S-TBPS bindng test, IC50 on inhibiting the TBPS binding activity
Method in brief: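 Male Sprague-Dawley rat cortical membranes in PBS were preincubated 5 min at 25 °C with compound (8-point 3-fold series […], 1% DMSO), then with GABA ([…]). 2 nM 35S-TBPS was added for 20 h at 4 °C, followed by GF/C filtration and scintillation counting. % inhibition was normalised to DMSO and 10 μM reference controls, with IC50 from a 4-parameter fit.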

[1] = Pharmacokinetic assay in Balb/c mice (plasma and brain tissue); format: in vivo; details: male, mouse, po
Procedure: Balb/c mice were used as test animals. The pharmacokinetic behavior in mice (plasma and brain tissue) of the compounds of Example 2, Example 5, Example 7, Example 12, Example 18, Example 23, Example 26, Example 38, Example 41, Example 50, Example 51 and Example 66 orally administrated at a dose of 5 mg/kg was studied.
Each group had 24 male Balb/c mice. After an overnight fast, Balb/c mice were administrated p.o. with the test compound at an administration dose of 5 mg/kg and an administration volume of 10 mL/kg.
0.2 ml of blood was taken from the heart before administration and at 0, 0.5, 1, 2, 4, 6, 8 and 24 hours after administration. The samples were stored in EDTA-K2 tubes, and centrifuged for 6 minutes at 4° C., 6000 rpm to separate the plasma. The plasma samples were stored at −80° C. The mice were sacrificed with CO2, and the whole brain tissue was taken out, weighed, placed in a 2 mL centrifuge tube and stored at −80° C.
1) 160 μL of acetonitrile was added to 40 μL of the plasma sample for precipitation, and then the mixture was centrifuged for 5-20 minutes at 3500×g.
2) 90 μL of acetonitrile containing the internal standard (100 ng/mL) was added to 30 μL of the plasma and brain homogenate samples for precipitation, and then the mixture was centrifuged for 8 minutes at 13000 rpm.
3) 70 μL of the treated supernatant was taken and added to 70 μL of water, and mixed by vortex for 10 minutes. 20 μL of the mixture was taken to analyze the concentration of the test compound by LC/MS/MS. LC/MS/MS analysis instrument: AB Sciex API 4000 Qtrap.
2.6 Liquid Chromatography Analysis • Liquid chromatography condition: Shimadzu LC-20AD pump. • Chromatographic column: Agilent ZORBAX XDB-C18 (50×2.1 mm, 3.5 μm); Mobile phase: Eluent A was 0.1% formic acid in water, and Eluent B was acetonitrile. • Flow rate: 0.4 mL/min • Elution time: 0-4.0 minutes the eluent is as follows:
The main parameters of pharmacokinetics were calculated by WinNonlin 6.1.

[2] = Balb/c, in vivo, 5 mg/kg, Area under curve AUC0-t
[3] = Balb/c, in vivo, 5 mg/kg, Half-life t1/2
[4] = Balb/c, in vivo, 5 mg/kg, Mean residence time MRT
[5] = Balb/c, in vivo, 5 mg/kg, Peak time tmax
[6] = Balb/c, in vivo, 5 mg/kg, Plasma concentration Cmax

Row | SMILES | IC50 (GABA-A receptor) | Area under curve AUC0-t ([1]; Balb/c, in vivo, 5 mg/kg) | Half-life t1/2 ([1]; Balb/c, in vivo, 5 mg/kg) | Mean residence time MRT ([1]; Balb/c, in vivo, 5 mg/kg) | Plasma concentration Cmax ([1]; Balb/c, in vivo, 5 mg/kg) | AUC(0-t) [1, 2] | half-life [1, 3] | MRT [1, 4] | Tmax [1, 5] | Cmax [1, 6] | other results
1 | C[C@@]1(O)CC[C@@]2(F)[C@H](CC[C@H]3[C@@H]4CC[C@H](C(=O)Cn5cc(C#N)cn5)[C@@]4(C)CC[C@@H]32)C1 [Example 2, 1-(2-((3R,5R,8S,9S,10R,13S,14S,17S)-10-Fluoro-3-hydroxy-3,13-dimethylhexadecahydro-1H-cyclopenta[a]phenanthren-17-yl)-2-oxoethyl)-1H-pyrazole-4-carbonitrile] | 11.8 nM | – | – | – | – | – | – | – | – | – | AUC(0-t) ([1]; Balb/c, brain, 5 mg/kg, Balb/c mice, 5 mg/kg p.o., brain tissue, read-out: Area under curve AUC0-t): 1770 ng·h/mL; AUC(0-inf) ([1]; Balb/c, brain, 5 mg/kg, Balb/c mice, 5 mg/kg p.o., brain tissue, read-out: Area under curve AUC0-∞): 1790 ng·h/mL; half-life ([1]; Balb/c, brain, 5 mg/kg, Balb/c mice, 5 mg/kg p.o., brain tissue, read-out: Half-life t1/2 (converted)): 1.49 h; MRT ([1]; Balb/c, brain, 5 mg/kg, Balb/c mice, 5 mg/kg p.o., brain tissue, read-out: Mean residence time MRT): 2.26 h; Cmax ([1]; Balb/c, brain, 5 mg/kg, Balb/c mice, 5 mg/kg p.o., brain tissue, read-out: Plasma concentration Cmax): 655 ng/mL; AUC(0-t) ([1]; Balb/c, plasma, 5 mg/kg, Balb/c mice, 5 mg/kg p.o., plasma, read-out: Area under curve AUC0-t): 2660 ng·h/mL; AUC(0-inf) ([1]; Balb/c, plasma, 5 mg/kg, Balb/c mice, 5 mg/kg p.o., plasma, read-out: Area under curve AUC0-∞): 2710 ng·h/mL; half-life ([1]; Balb/c, plasma, 5 mg/kg, Balb/c mice, 5 mg/kg p.o., plasma, read-out: Half-life t1/2 (converted)): 1.49 h; MRT ([1]; Balb/c, plasma, 5 mg/kg, Balb/c mice, 5 mg/kg p.o., plasma, read-out: Mean residence time MRT): 2.49 h; Cmax ([1]; Balb/c, plasma, 5 mg/kg, Balb/c mice, 5 mg/kg p.o., plasma, read-out: Plasma concentration Cmax): 846 ng/mL; Tmax ([1]; Balb/c mice, 5 mg/kg p.o., brain tissue, read-out: Peak time tmax): 1 h; Tmax ([1]; Balb/c mice, 5 mg/kg p.o., plasma, read-out: Peak time tmax): 1 h
2 | C[C@@]1(O)CC[C@@]2(F)[C@H](CC[C@H]3[C@@H]4CC[C@H](C(=O)CNc5ccc(F)cc5)[C@@]4(C)CC[C@@H]32)C1 [Example 23, 1-((3R,5R,8S,9S,10R,13S,14S,17S)-10-Fluoro-3-hydroxy-3,13-dimethylhexadecahydro-1H-cyclopenta[a]phenanthren-17-yl)-2-((4-fluorophenyl)amino)ethan-1-one] | 30.9 nM | 1067.1 ng·h/mL | 1.36 h | 2.42 h | 558.0 ng/mL | 545 ng·h/mL | 1.08 h | 1.78 h | 0.5 h | 408 ng/mL | –
3 | C[C@@]1(O)CC[C@@]2(F)[C@H](CC[C@H]3[C@@H]4CC[C@H](C(=O)Cn5ccc(C(F)(F)F)n5)[C@@]4(C)CC[C@@H]32)C1 [Example 5, 1-((3R,5R,8S,9S,10R,13S,14S,17S)-10-Fluoro-3-hydroxy-3,13-dimethylhexadecahydro-1H-cyclopenta[a]phenanthren-17-yl)-2-(3-(trifluoromethyl)-1H-pyrazol-1-yl)ethan-1-one] | 8.3 nM | 470.9 ng·h/mL | 0.94 h | 1.74 h | 233.7 ng/mL | 515 ng·h/mL | 1.16 h | 1.94 h | 0.5 h | 242 ng/mL | Area under curve AUC0-∞ ([1]; Balb/c, in vivo, 5 mg/kg): 485.5 ng·h/mL; AUC(0-inf) ([1]; Balb/c, in vivo, 5 mg/kg, Area under curve AUC0-∞): 524 ng·h/mL
